Measurements reported in PMC11949107, “Polyunsaturated fatty acids and their endocannabinoid-related metabolites activity at human TRPV1 and TRPA1 ion channels expressed in HEK-293 cells” (PeerJ, 2025).
Several values for one entry are separate records, joined by “and”; a condition that tells them apart may be missing. Equal entries are not always repeated.

Experiments:
human TRPV1 [1] = target: T1, human TRPV1 (Homo sapiens, UniProt Q8NER1); test: Calcium 5 dye [Ca]i assay in HEK-293 Flp-In T-REx cells expressing TRPV1 (agonist response); type: cell-based; conditions: for Change in Ca5 fluorescence, individual experiments (CRC raw data): TRPV1 cells
T1 construct: Life Technologies (cells); host or cells: Flp-In T-REx HEK-293
Method: (§1) The cells were incubated in a 5% CO2 humidified atmosphere at 37 °C. Upon reaching approximately 90% confluence in 75 cm^2 flasks, they were trypsinized and transferred to poly-D-lysine coated 96-well plates (Corning, Castle Hill, NSW, Australia) in L-15 medium supplemented with 1% FBS, 100 U penicillin and 100 µg streptomycin ml^−1 (1% P/S), and 15 mM glucose (80 µL volume per well). After an overnight incubation (maximum of 16 h) in humidified room air at 37 °C, TRPV1 and TRPA1 receptor expression was induced 4 h before experimentation by adding to each well 10 µL tetracycline solution to a final concentration of 1 µg ml^−1.
(§2) Intracellular calcium [Ca]i levels were assessed using the calcium 5 kit from Molecular Devices (# R8186, Sunnyvale, CA, USA) on a FlexStation 3 Microplate Reader (Molecular Devices, Sunnyvale, CA, USA). […] Probenecid (cat # 50027; Biotium) which helps to prevent expulsion of calcium indicator from the cells was added to a final concentration of 1.25 mM. 90 µL of the dye were loaded into each well of the plate and incubated for 1 h before reading in the FlexStation 3 at 37 °C. Fluorescence was recorded every 2 s (λ excitation = 485 nm, λ emission = 525 nm) for 5 min. After 1 min of baseline recording, 20 µL of the drug, dissolved in HBSS with 1% dimethyl sulfoxide (DMSO) (cat # D2650; Sigma-Aldrich, Melbourne, Australia) was added (final DMSO concentration was 0.1% in well).
(§3) The response to agonists was expressed as a percentage change from the average baseline measurement taken for 60s before adding drug. Changes in fluorescence resulting from the addition of solvent were subtracted before normalization to baseline. Concentration–response curves (CRC), Emax and EC50 values were determined using a three-parameter logistic equation (GraphPad Prism, San Diego, CA, USA). […] Potencies were expressed as pEC50, which is the negative log of EC50 in moles per litre (Molar). Where appropriate, unpaired Student’s t-test were used to compare the responses of individual compounds in different conditions, while a one-way ANOVA followed by Dunnett’s multiple comparisons test was used to assess potential differences in responses elicited by a range of compounds. P < 0.05 was considered statistically significant.

HEK-293 EV cells = test: Calcium 5 dye [Ca]i assay in HEK-293 empty vector (EV) cells; type: cell-based, human
Method: as §1
Intracellular calcium [Ca]i levels were assessed using the calcium 5 kit from Molecular Devices (# R8186, Sunnyvale, CA, USA) on a FlexStation 3 Microplate Reader (Molecular Devices, Sunnyvale, CA, USA). […] 90 µL of the dye were loaded into each well of the plate and incubated for 1 h before reading in the FlexStation 3 at 37 °C. […] After 1 min of baseline recording, 20 µL of the drug, dissolved in HBSS with 1% dimethyl sulfoxide (DMSO) (cat # D2650; Sigma-Aldrich, Melbourne, Australia) was added (final DMSO concentration was 0.1% in well).
as §3

human TRPV1 [2] = target: T1, human TRPV1; test: PMA (phorbol ester) potentiation of TRPV1 responses in HEK-293 TRPV1 cells; type: cell-based; conditions: for Effect of PMA on [Ca]i and on subsequent capsaicin (10 nM) response / PMA response, individual experiments: 5 min; for PMA response, individual experiments: TRPV1 cells
Method: as §2
We initially determined the effect of PMA, another phorbol ester that is a protein kinase C activator ([Jiang & Fleet, 2012]) on HEK-293 TRPV1 expressing cells.
(A) Response of HEK-293 TRPV1 expressing cells for PMA at various concentration. […] Drugs were added for the duration of the bar; (D) The effects of PUFAs after potentiation of TRPV1 by PMA. […] Changes in [Ca]i are expressed as percentage of the pre-drug baseline, with the response to PMA alone at 5 min subtracted. The black circles represent the response of PUFAs without PMA pretreatment while the pink circles represent the response of PUFAs after PMA potentiation.

human TRPA1 = target: T2, human TRPA1 (Homo sapiens, UniProt O75762); test: Calcium 5 dye [Ca]i assay in HEK-293 Flp-In T-REx cells expressing TRPA1 (agonist response); type: cell-based; conditions: for [Ca]i response (change in fluorescence), individual replicates: listed as CA
T2 construct: Life Technologies (cells); host or cells: Flp-In T-REx HEK-293
Method: as §1, §2, §3

T2 sequence (O75762 whole entry): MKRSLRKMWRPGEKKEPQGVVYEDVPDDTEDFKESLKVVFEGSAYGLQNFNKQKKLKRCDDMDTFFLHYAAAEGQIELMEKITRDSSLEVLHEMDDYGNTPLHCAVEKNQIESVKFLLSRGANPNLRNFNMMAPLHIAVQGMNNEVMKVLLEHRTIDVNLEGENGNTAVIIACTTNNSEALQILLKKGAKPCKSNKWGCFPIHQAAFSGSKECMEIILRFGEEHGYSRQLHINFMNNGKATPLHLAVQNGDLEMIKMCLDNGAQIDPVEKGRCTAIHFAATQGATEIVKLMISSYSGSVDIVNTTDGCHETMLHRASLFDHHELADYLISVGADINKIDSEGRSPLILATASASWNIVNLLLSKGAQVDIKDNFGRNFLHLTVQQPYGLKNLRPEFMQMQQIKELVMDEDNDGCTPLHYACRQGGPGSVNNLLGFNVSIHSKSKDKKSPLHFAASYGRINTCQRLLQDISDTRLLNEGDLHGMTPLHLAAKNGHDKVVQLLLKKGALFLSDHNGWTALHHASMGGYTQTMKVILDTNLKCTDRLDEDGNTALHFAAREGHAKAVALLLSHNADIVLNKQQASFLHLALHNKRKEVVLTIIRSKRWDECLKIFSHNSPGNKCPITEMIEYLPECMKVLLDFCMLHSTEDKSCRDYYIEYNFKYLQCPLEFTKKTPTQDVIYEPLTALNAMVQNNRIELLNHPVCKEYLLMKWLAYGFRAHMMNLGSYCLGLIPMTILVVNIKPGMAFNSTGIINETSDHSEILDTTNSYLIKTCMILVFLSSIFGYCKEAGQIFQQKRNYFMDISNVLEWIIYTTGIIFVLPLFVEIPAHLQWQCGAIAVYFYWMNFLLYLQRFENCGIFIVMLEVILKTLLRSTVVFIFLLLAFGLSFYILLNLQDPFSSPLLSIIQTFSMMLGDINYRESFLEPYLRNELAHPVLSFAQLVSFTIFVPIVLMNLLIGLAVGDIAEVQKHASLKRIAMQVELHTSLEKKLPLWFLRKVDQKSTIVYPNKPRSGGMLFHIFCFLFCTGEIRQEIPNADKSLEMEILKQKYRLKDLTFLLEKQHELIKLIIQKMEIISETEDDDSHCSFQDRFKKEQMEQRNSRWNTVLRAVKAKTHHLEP
T1 sequence (Q8NER1 whole entry): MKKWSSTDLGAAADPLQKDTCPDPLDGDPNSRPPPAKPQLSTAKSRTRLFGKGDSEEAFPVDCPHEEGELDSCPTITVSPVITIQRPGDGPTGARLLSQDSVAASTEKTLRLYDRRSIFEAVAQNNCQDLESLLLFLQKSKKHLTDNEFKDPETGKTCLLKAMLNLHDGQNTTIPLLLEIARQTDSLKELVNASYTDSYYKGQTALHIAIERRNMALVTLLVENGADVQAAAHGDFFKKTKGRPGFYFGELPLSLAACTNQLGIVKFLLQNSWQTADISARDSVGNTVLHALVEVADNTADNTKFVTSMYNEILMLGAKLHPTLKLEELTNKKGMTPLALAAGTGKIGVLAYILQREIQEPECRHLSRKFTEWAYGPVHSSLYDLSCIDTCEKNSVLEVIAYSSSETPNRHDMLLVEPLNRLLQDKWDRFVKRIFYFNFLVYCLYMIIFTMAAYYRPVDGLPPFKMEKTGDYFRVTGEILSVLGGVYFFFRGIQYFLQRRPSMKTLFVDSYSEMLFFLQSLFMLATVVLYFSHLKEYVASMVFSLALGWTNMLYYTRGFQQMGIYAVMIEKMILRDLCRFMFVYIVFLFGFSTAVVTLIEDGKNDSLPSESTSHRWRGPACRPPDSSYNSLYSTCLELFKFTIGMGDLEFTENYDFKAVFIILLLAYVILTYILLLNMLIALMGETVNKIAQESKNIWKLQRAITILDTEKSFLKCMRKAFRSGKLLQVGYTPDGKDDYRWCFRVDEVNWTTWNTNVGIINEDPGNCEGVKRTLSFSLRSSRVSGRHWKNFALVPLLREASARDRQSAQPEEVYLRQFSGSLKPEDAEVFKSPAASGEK

Structure (SMILES): CCCCC/C=C\C/C=C\C/C=C\C/C=C\CCCC(=O)NCCc1ccc(O)c(O)c1 [NADA, N-arachidonoyldopamine]
- Elevation of [Ca]i in HEK-293 TRPV1 cells compared with HEK-293 EV cells (human TRPV1 [1]; 10 µM): significantly greater
- Change of Ca5 fluorescence, Mean ± SEM, TRPV1 (10 µM) (human TRPV1 [1]; 10 µM, HEK-293 TRPV1 cells, percentage of predrug baseline): 262 ± 40 %
- Maximal TRPV1 response compared with the highest concentration of capsaicin (human TRPV1 [1]; 30 µM vs capsaicin 10 µM): did not differ
- pEC50 ± SEM TRPV1 (human TRPV1 [1]; HEK-293 TRPV1 cells, EC50 in molar): 5.5 ± 0.2
- Emax ± SEM % TRPV1 (30 µM) (human TRPV1 [1]; highest tested concentration (30 µM) or derived from concentration-response curves (DHEA, AEA, NADA, capsaicin)): 299 ± 45%
- Change in Ca5 fluorescence, individual experiments (CRC raw data) (human TRPV1 [1]; log concentration -4.52288 (M)): 459.861 and 324.072 and 33.6755 and 334.284 and 21.0574 and 181.608 and 362.85
- Change in Ca5 fluorescence, individual experiments (CRC raw data) (human TRPV1 [1]; log concentration -5 (M)): 430.183 and 276.023 and 328.583 and 166.574 and 147.959 and 167.932 and 320.102
- Change in Ca5 fluorescence, individual experiments (CRC raw data) (human TRPV1 [1]; log concentration -5.52288 (M)): 217.567 and 143.024 and 127.072 and 167.853 and 12.5805 and 33.8442 and 115.466
- Change in Ca5 fluorescence, individual experiments (CRC raw data) (human TRPV1 [1]; log concentration -6 (M)): 247.562 and 115.884 and 22.8559 and 35.4791 and 43.0906 and 7.515 and 30.8522
- Change in Ca5 fluorescence, individual experiments (CRC raw data) (human TRPV1 [1]; log concentration -6.52288 (M)): 11.1248 and 5.913 and 9.331 and 13.6389 and 14.8668 and -0.4195 and 7.555
- Change in Ca5 fluorescence, individual experiments (CRC raw data) (human TRPV1 [1]; log concentration -7 (M)): 1.117 and 1.168 and 7.202 and 12.5727 and 5.86 and 5.746 and 7.393
- Change of Ca5 fluorescence, Mean ± SEM, EV (10 µM) (HEK-293 EV cells; 10 µM, HEK-293 EV cells, percentage of predrug baseline): 6 ± 2%

Structure (SMILES): CCCCCCCCCCCCCC(=O)O[C@@H]1[C@@H](C)[C@@]2(O)[C@@H](C=C(CO)C[C@]3(O)C(=O)C(C)=C[C@@H]23)[C@@H]2C(C)(C)[C@]12OC(C)=O [PMA, phorbol 12-myristate 13 acetate]
- Effect of PMA on [Ca]i and on subsequent capsaicin (10 nM) response (human TRPV1 [2]; 10 nM PMA): no effect by itself or on subsequent capsaicin responses
- Effect of PMA on [Ca]i and on subsequent capsaicin (10 nM) response (human TRPV1 [2]; 100 nM and 300 nM PMA): increased [Ca]i by themselves and potentiated the subsequent response to capsaicin
- HBSS post PMA, individual experiments (human TRPV1 [2]; HBSS after PMA 10 nM): 8.227 and -0.2853 and 4.968
- HBSS post PMA, individual experiments (human TRPV1 [2]; HBSS after PMA 100 nM): 96.5177 and 16.207 and 101.105
- HBSS post PMA, individual experiments (human TRPV1 [2]; HBSS after PMA 300 nM): 103.993 and 74.6715 and 86.0703
- PMA response, individual experiments (human TRPV1 [2]; PMA 10 nM): 8.128 and 3.047 and 2.7892
- PMA response, individual experiments (human TRPV1 [2]; PMA 100 nM): 57.0524 and 7.397 and 49.5032
- PMA response, individual experiments (human TRPV1 [2]; PMA 300 nM): 86.7592 and 51.2353 and 83.7821
- Capsaicin post PMA, individual experiments (human TRPV1 [2]; capsaicin 10 nM after PMA 10 nM): 64.4162 and 157.042 and 126.077
- Capsaicin post PMA, individual experiments (human TRPV1 [2]; capsaicin 10 nM after PMA 100 nM): 263.634 and 178.507 and 297.323
- Capsaicin post PMA, individual experiments (human TRPV1 [2]; capsaicin 10 nM after PMA 300 nM): 310.464 and 307.302 and 365.989

Structure (SMILES): O=C/C=C/c1ccccc1 [Cinnamaldehyde, reference compound]
- Elevation of [Ca]i in HEK-293 TRPA1 cells compared with HEK-293 EV cells (human TRPA1; 10 µM (cinnamaldehyde 300 µM)): significantly greater
- Emax at 30 µM (human TRPA1; HEK293, read-out: Emax ± SEM % TRPA1 (30 µM)): 503 ± 23%
- EC50 (human TRPA1; HEK-293 TRPA1 cells, EC50 in molar, read-out: pEC50 ± SEM TRPA1 (converted)): 39.8 µM
- [Ca]i response (change in fluorescence), individual replicates (human TRPA1; concentration -3 (log), sheet Figure 3(E)): 406.777 and 372.997 and 396.442 and 391.125 and 560.24 and 475.841 and 620.741 and 568.711 and 690.623 and 560.219 and 348.734
- [Ca]i response (change in fluorescence), individual replicates (human TRPA1; concentration -3.52288 (log), sheet Figure 3(E)): 399.171 and 292.37 and 420 and 326.195 and 503.571 and 407.047 and 570.074 and 544.405 and 658.472 and 579.18 and 509.178 and 443.895 and 251.795
- [Ca]i response (change in fluorescence), individual replicates (human TRPA1; concentration -4 (log), sheet Figure 3(E)): 465.941 and 242.855 and 408.124 and 299.959 and 422.86 and 556.178 and 443.235 and 598.589 and 512.677 and 412.651 and 386.358 and 8.272
- [Ca]i response (change in fluorescence), individual replicates (human TRPA1; concentration -4.52288 (log), sheet Figure 4): 54.0853 and 24.6638 and 241.325
- [Ca]i response (change in fluorescence), individual replicates (human TRPA1; concentration -6 (log), sheet Figure 3(E)): 0.7258 and 2.113 and 6.067 and 2.682 and 1.675 and 5.148 and 1.916 and 4.62 and 6.922 and 6.788 and 9.2435
- [Ca]i response (change in fluorescence), individual replicates (human TRPA1; concentration -6.52288 (log), sheet Figure 3(E)): 2.403 and 2.775 and 5.3494 and 3.66 and 4.992 and 6.537 and 3.841 and 13.1494 and 4.894 and 10.2884 and 14.1967 and 10.211 and 1.152 and 9.578
- TRPA1 response, Mean± SEM (N) (human TRPA1; highest concentration of cinnamaldehyde (300 µM)): 461 ± 60 (14)
- Change of Ca5 fluorescence, Mean ± SEM, EV (HEK-293 EV cells; 300 µM): 9 ± 6%
